# Data: US20170368082A1, “FORMULATIONS OF BRINCIDOFOVIR” (priority 2016, published 2017)
# Assay: Tissue distribution by quantitative whole-body autoradiography (QWBA)
# Format: in vivo, male Sprague Dawley and Long-Evans rats
# Settings: PO 15 mg/kg, Group 7
# Method: The study utilized 4 groups of male SD rats (albino), and 3 groups of male LE rats (pigmented); a total of 39 rats. All animals were obtained from Hilltop Lab Animals, Inc. (Scottdale, Pa.). […] Rats in Group 5 were administered a single 2-h IV infusion of [^14C]brincidofovir at a target dose of 2 mg/kg. […] Three dosing formulations (one for high dose IV, one for low dose IV, and one for PO dose) were prepared at QPS on the day of dosing. The IV formulation for Groups 1, 2, 3, and 4 contained a vehicle of 10 mM sodium phosphate buffer in 5% dextrose solution at pH 8.0(±0.1).
# Each animal, at their respective termination time points, was euthanized for QWBA analysis immediately after blood collection. One rat per time point per Group was euthanized as listed below.
# The blood samples were maintained on wet ice (approximately 4° C.) and then centrifuged to obtain plasma within 1 h of the blood collection time. Centrifuge settings were recorded in the study notebook. Duplicate aliquots of plasma (0.050 mL) were analyzed for radioactivity using direct counting by LSC, and residual plasma was stored at approximately −70° C. and was saved for possible future analysis under a separate study protocol. Residual red blood cells were discarded as radioactive waste.
# The pinna, distal limbs, hair, and tail were removed from each frozen carcass and each frozen carcass was embedded in an aqueous suspension of approximately 2% (w/v) carboxymethylcellulose and frozen into a block. The blocks were stored at approximately −20° C. prior to sectioning. Each blocked carcass was mounted on the object stage of a cryomicrotome (Leica CM3600 Cryomacrocut, Nussloch, Germany and Vibratome 9800, St. Louis, Mo.) maintained at approximately −20° C. and internal standards (3), which were plasma fortified with [^14C]-glucose at one concentration (approximately 0.05 μCi/mL), were placed into the frozen blocks, prior to sectioning, and were used for section thickness quality control. A number of whole-body sections (approximately 40 μm thick) were taken in the sagittal plane at various levels of interest using a whole-body cryomicrotome set at −20° C. Sagittal sections (20-50 μm thick) of frozen carcasses were exposed to phosphor imaging plates. Regions of images in tissues were converted to concentrations using standards. All of the major tissues, organs, and biological fluids were represented.
# Tissue concentration data was determined for the following tissues and/or contents: adipose (brown and white), adrenal gland, bile (in duct), blood (cardiac), bone, bone marrow, brain (cerebrum, cerebellum, medulla), cecum (and contents), large intestine (and contents), epididymis, esophagus, eye (uvea and lens), Harderian gland, heart, kidney (cortex and medulla), liver, lung, lymph node, pancreas, pituitary gland, prostate gland, salivary gland, seminal vesicles, skeletal muscle, skin (pigmented and non-pigmented), small intestine (and contents), stomach (gastric mucosa and contents), spleen, spinal cord, testis, thymus, thyroid, and urinary bladder (and contents).
# The imaging plate and sections were placed in light-tight exposure cassettes, in a copper-lined lead safe, for a 4-day exposure at room temperature. […] Quantification was performed by image densitometry using MCD image analysis software (v. 7.0, Interfocus Imaging Ltd) and a standard curve constructed from the integrated response [i.e., Molecular Dynamics Counts per square millimeter (MDC/mm^2)] and the nominal concentrations of the ^14C-calibration standards. The concentrations of radioactivity were expressed as the μg equivalents of [^14C]brincidofovir per gram sample (μg equiv/g). A lower limit of quantification (LLOQ) was applied to the data (See section 6.7.4).
# Tissue concentrations that fell below the LLOQ were identified as being below the quantification limit (BQL). Tissue areas that were not visualized on autoradiographic images were identified as no sample (NS) and reported as BQL.
structure (smiles),measurement,setting,value
CCCCCCCCCCCCCCCCOCCCOP(=O)(O)CO[C@H](CO)Cn1ccc(N)nc1=O [[14C]brincidofovir],AUCall,Adipose (brown),24.3703 μg equiv · h/g
same,AUCinf—obs,Adipose (brown),24.4043 μg equiv · h/g
same,Tmax,Adipose (brown),4 h
same,t1/2,Adipose (brown),233.5 h
same,AUCall,Adipose (white),1.1215 μg equiv · h/g
same,AUCinf—obs,Adipose (white),2.4387 μg equiv · h/g
same,Tmax,Adipose (white),4 h
same,t1/2,"Adipose (white), estimate (footnote a)",17.6 h
same,AUCall,Adrenal Gland,74.5860 μg equiv · h/g
same,AUCinf—obs,Adrenal Gland,58.7136 μg equiv · h/g
same,Tmax,Adrenal Gland,8 h
same,t1/2,Adrenal Gland,43.2 h
same,AUCall,Blood (cardiac),21.9165 μg equiv · h/g
same,AUCinf—obs,Blood (cardiac),22.3146 μg equiv · h/g
same,Tmax,Blood (cardiac),8 h
same,t1/2,"Blood (cardiac), estimate (footnote a)",32.8 h
same,AUCall,Bone Marrow,68.7413 μg equiv · h/g
same,AUCinf—obs,Bone Marrow,50.2191 μg equiv · h/g
same,Tmax,Bone Marrow,8 h
same,t1/2,"Bone Marrow, estimate (footnote a)",96.3 h
same,AUCall,Bone,1.8470 μg equiv · h/g
same,AUCinf—obs,Bone,3.7274 μg equiv · h/g
same,Tmax,Bone,4 h
same,t1/2,"Bone, estimate (footnote a)",53.9 h
same,AUCall,Brain (cerebellum),0.8610 μg equiv · h/g
same,Tmax,Brain (cerebellum),8 h
same,AUCall,Brain (cerebrum),0.7650 μg equiv · h/g
same,Tmax,Brain (cerebrum),8 h
same,AUCall,Brain (medulla),0.5770 μg equiv · h/g
same,Tmax,Brain (medulla),4 h
same,AUCall,Cecum,174.4118 μg equiv · h/g
same,AUCinf—obs,Cecum,142.1970 μg equiv · h/g
same,Tmax,Cecum,8 h
same,t1/2,"Cecum, estimate (footnote a)",69.9 h
same,AUCall,Epididymis,31.1150 μg equiv · h/g
same,AUCinf—obs,Epididymis,22.3936 μg equiv · h/g
same,Tmax,Epididymis,4 h
same,t1/2,"Epididymis, estimate (footnote a)",89.0 h
same,AUCall,Esophagus,27.9015 μg equiv · h/g
same,AUCinf—obs,Esophagus,29.1559 μg equiv · h/g
same,Tmax,Esophagus,4 h
same,t1/2,Esophagus,37.2 h
same,AUCall,Eye (uveal tract),16.2765 μg equiv · h/g
same,AUCinf—obs,Eye (uveal tract),19.8244 μg equiv · h/g
same,Tmax,Eye (uveal tract),8 h
same,t1/2,"Eye (uveal tract), estimate (footnote a)",57.7 h
same,AUCall,Harderian Gland,63.7645 μg equiv · h/g
same,AUCinf—obs,Harderian Gland,50.8931 μg equiv · h/g
same,Tmax,Harderian Gland,8 h
same,t1/2,"Harderian Gland, estimate (footnote a)",151.8 h
same,AUCall,Heart,31.1603 μg equiv · h/g
same,AUCinf—obs,Heart,23.2365 μg equiv · h/g
same,Tmax,Heart,8 h
same,t1/2,"Heart, estimate (footnote a)",110.8 h
same,AUCall,Kidney Cortex,804.4980 μg equiv · h/g
same,AUCinf—obs,Kidney Cortex,822.5076 μg equiv · h/g
same,Tmax,Kidney Cortex,8 h
same,t1/2,"Kidney Cortex, estimate (footnote a)",244.8 h
same,AUCall,Kidney Medulla,342.0130 μg equiv · h/g
same,AUCinf—obs,Kidney Medulla,286.4307 μg equiv · h/g
same,Tmax,Kidney Medulla,8 h
same,t1/2,Kidney Medulla,41.2 h
same,AUCall,Large Intestine,140.3313 μg equiv · h/g
same,AUCinf—obs,Large Intestine,123.4302 μg equiv · h/g
same,Tmax,Large Intestine,8 h
same,t1/2,"Large Intestine, estimate (footnote a)",37.6 h
same,AUCall,Liver,1426.6340 μg equiv · h/g
same,AUCinf—obs,Liver,1435.9700 μg equiv · h/g
same,Tmax,Liver,4 h
same,t1/2,"Liver, estimate (footnote a)",190.3 h
same,AUCall,Lung,53.1145 μg equiv · h/g
same,AUCinf—obs,Lung,39.9962 μg equiv · h/g
same,Tmax,Lung,8 h
same,t1/2,Lung,93.0 h
same,AUCall,Lymph Node,85.04 μg equiv · h/g
same,AUCinf—obs,Lymph Node,57.7701 μg equiv · h/g
same,Tmax,Lymph Node,8 h
same,t1/2,"Lymph Node, estimate (footnote a)",86.4 h
same,AUCall,Pancreas,10.3720 μg equiv · h/g
same,AUCinf—obs,Pancreas,12.7271 μg equiv · h/g
same,Tmax,Pancreas,4 h
same,t1/2,Pancreas,62.1 h
same,AUCall,Pituitary Gland,30.5073 μg equiv · h/g
same,AUCinf—obs,Pituitary Gland,22.8331 μg equiv · h/g
same,Tmax,Pituitary Gland,4 h
same,t1/2,Pituitary Gland,106.2 h
same,AUCall,Prostate Gland,7.6578 μg equiv · h/g
same,AUCinf—obs,Prostate Gland,11.0471 μg equiv · h/g
same,Tmax,Prostate Gland,4 h
same,t1/2,Prostate Gland,70.1 h
same,AUCall,Salivary Gland,9.1933 μg equiv · h/g
same,AUCinf—obs,Salivary Gland,12.3800 μg equiv · h/g
same,Tmax,Salivary Gland,8 h
same,t1/2,"Salivary Gland, estimate (footnote a)",67.4 h
same,AUCall,Seminal Vesicles,50.2500 μg equiv · h/g
same,AUCinf—obs,Seminal Vesicles,34.9600 μg equiv · h/g
same,Tmax,Seminal Vesicles,1 h
same,t1/2,Seminal Vesicles,64.7 h
same,AUCall,Skeletal Muscle,1.3265 μg equiv · h/g
same,Tmax,Skeletal Muscle,8 h
same,AUCall,Skin (non-pigmented),14.0275 μg equiv · h/g
same,AUCinf—obs,Skin (non-pigmented),20.6749 μg equiv · h/g
same,Tmax,Skin (non-pigmented),8 h
same,t1/2,"Skin (non-pigmented), estimate (footnote a)",93.7 h
same,AUCall,Skin (pigmented),17.0405 μg equiv · h/g
same,AUCinf—obs,Skin (pigmented),21.3144 μg equiv · h/g
same,Tmax,Skin (pigmented),8 h
same,t1/2,"Skin (pigmented), estimate (footnote a)",63.4 h
same,AUCinf—obs,Small Intestine,9585.0880 μg equiv · h/g
same,Tmax,Small Intestine,4 h
same,t1/2,Small Intestine,98.1 h
same,AUCall,"Small Intestine, 15 mg/kg",9575.1810 μg equiv · h/g
same,AUCall,Spinal Cord,0.1110 μg equiv · h/g
same,Tmax,Spinal Cord,4 h
same,AUCall,Spleen,172.2208 μg equiv · h/g
same,AUCinf—obs,Spleen,125.7566 μg equiv · h/g
same,Tmax,Spleen,24 h
same,t1/2,Spleen,115.4 h
same,AUCall,Stomach (mucosa),90.7575 μg equiv · h/g
same,AUCinf—obs,Stomach (mucosa),80.6917 μg equiv · h/g
same,Tmax,Stomach (mucosa),2 h
same,t1/2,Stomach (mucosa),66.8 h
same,AUCall,Testis,30.3920 μg equiv · h/g
same,AUCinf—obs,Testis,21.7757 μg equiv · h/g
same,Tmax,Testis,8 h
same,t1/2,"Testis, estimate (footnote a)",87.2 h
same,AUCall,Thymus,12.0843 μg equiv · h/g
same,AUCinf—obs,Thymus,20.6983 μg equiv · h/g
same,Tmax,Thymus,8 h
same,t1/2,"Thymus, estimate (footnote a)",96.9 h
same,AUCall,Thyroid,31.3395 μg equiv · h/g
same,AUCinf—obs,Thyroid,21.8086 μg equiv · h/g
same,Tmax,Thyroid,4 h
same,t1/2,Thyroid,59.0 h
same,AUCall,Urinary Bladder,111.2445 μg equiv · h/g
same,AUCinf—obs,Urinary Bladder,91.1627 μg equiv · h/g
same,Tmax,Urinary Bladder,8 h
same,t1/2,Urinary Bladder,49.7 h
